Experimental data from PMC10791897, “Ligand-binding properties of XaffOBP9, a Minus-C odorant-binding protein from Xyleborus affinis (Coleoptera: Curculionidae: Scolytinae)” (Frontiers in Physiology, 2024).
Entries after “also recorded” stand apart in the source; their conditions may differ. Like-named read-outs stand apart in the source and are kept apart here.

Experiments:
XaffOBP9 mutant L114A = assay: Fluorescence binding assays of mutant L114A; parameters: species or system Xyleborus affinis; settings: for binding of ligand to L114A mutant protein: fluorescence binding assays, classes by Ki as in Figure 8 legend
Protocol: (§1) The purified XaffOBP9 was dissolved at a final concentration of 2 μM in 50 mM Tris-HCl (pH 7.4). The binding ability of the fluorescent probe to XaffOBP9 was measured using the Infinite 200 PRO microplate plate reader (Tecan, Mannedorf, Switzerland). […] Binding data were collected as three independent measurements. […] The data analysis and binding curve calculations were processed in Prism 8 (Graphpad Software, San Diego, CA, United States).
(§2) Three types of XaffOBP9 mutants (L71A, L114A, Y106A) were generated using the Fast Site-Directed Mutagenesis Kit (Tiangen, Beijing, China) according to manufacturer protocol. Sited-directed mutagenesis primers were listed in Supplementary Table S1 The PCR amplification reaction was 95°C for 2 min, followed by 94 C for 20 s, 55 C for 10 s, 68 C 2.5 min, with final incubation at 68 °C for 5 min. The three mutant proteins were then expressed and purified following the procedures used for wild-type XaffOBP9.

XaffOBP9 = assay: Fluorescence binding assays of XaffOBP9 (1-NPN titration and competitive binding); parameters: species or system Xyleborus affinis; settings: for Ki: calculated from IC50: Ki = [IC50]/(1 + [1-NPN]/K1-NPN); for IC50: competitor displacing 1-NPN, 2 μM protein, 50 mM Tris-HCl pH 7.4
Protocol: (§3) The purified XaffOBP9 was dissolved at a final concentration of 2 μM in 50 mM Tris-HCl (pH 7.4). The binding ability of the fluorescent probe to XaffOBP9 was measured using the Infinite 200 PRO microplate plate reader (Tecan, Mannedorf, Switzerland). […] These compounds (>90% puity) were purchased from Yuanye Bio-Technology (Shanghai, China), Alading Chemical Industry (Shanghai, China) and Sigma-Aldrich (MO, United States). Binding data were collected as three independent measurements. […] The data analysis and binding curve calculations were processed in Prism 8 (Graphpad Software, San Diego, CA, United States).

X. affinis = settings: cited from earlier work; for attraction of X. affinis: 2020
XaffOBP9 mutant Y106A = assay: Fluorescence binding assays of mutant Y106A; parameters: species or system Xyleborus affinis
Protocol: as §1, §2

XaffOBP9 mutant L71A = assay: Fluorescence binding assays of mutant L71A; parameters: species or system Xyleborus affinis; settings: read-out: Kd with 1-NPN
Protocol: as §3, §2

| SMILES | binding of ligand to L114A mutant protein (XaffOBP9 mutant L114A) | Ki (XaffOBP9) [µM] | IC50 (XaffOBP9) [µM] | other results |
| --- | --- | --- | --- | --- |
| CC1=CCC(=C(C)C)CC1 [Terpinolene] | lost its ability to bind | 11.3 | 13.2 | – |
| C=C1C2CCC3C2C(C)(C)CCCC13C (single isomer, unassigned; (+)) [(+)-Longifolene] | lost its ability to bind | 16.7 | 19.5 | attraction of X. affinis (X. affinis; ref Xu et al.): attraction effect |
| CCCCCCCCCCCCCCCC(=O)OC [Methyl palmitate] | – | – | – | reduction of relative fluorescence intensity of the [XaffOBP/1-NPN] mixture (XaffOBP9; competitive fluorescence binding curves): did not reduce the relative fluorescence intensity to less than half |
| C=C(C)[C@@H]1CC=C(C)CC1 [(S)-(-)-Limonene] | lost its ability to bind | 14 | 16.4 | – |
| C=C1C2CCC(C2)C1(C)C (stereo not drawn) [Camphene] | – | 8 | 9.3 | – |
| CC1=CCC2C(C1)C2(C)C (stereo not drawn) [Ligand 3-Carene, 3-Carene] | lost its ability to bind | 10.6 | 12.4 | – |
| CC1=CCC2CC1C2(C)C (stereo not drawn) [α-pinene] | – | 8.5 | 9.9 | effect on attraction of X. affinis (X. affinis; trapping investigations, ref Miller and Rabaglia, 2009): enhance the attractive effect of ethanol |
| CCO [ethanol] | – | – | – | attraction of X. affinis (X. affinis; attractant lure, ref Ranger et al., 2011, Steininger et al., 2015, Lehenberger et al., Cavaletto et al., 2021): only weakly attracted |
| CC(C)(O)c1ccccc1 [2-Phenyl-2-propanol] | lost its ability to bind | 12 | 14 | attraction of X. affinis (X. affinis; ref Xu et al.): attraction effect |
| CCCCCCCCCCCCCC [Tetradecane] | lost its ability to bind | 13.5 | 15.7 | change of binding affinity of Y106A compared with WT (XaffOBP9 mutant Y106A; fluorescence binding assays): noticeable decrease in its affinity; also recorded: certain decrease in binding; attraction of X. affinis (X. affinis; ref Xu et al.): attraction effect |
| CC1=CC(O)C2CC1C2(C)C [(S)-cis-Verbenol] | weakly bound | 13.9 | 16.2 | attraction of this rubber bark beetle (X. affinis; aggregation pheromone, ref Brand et al., 1975, Chen et al., 2019): exhibits attraction effects |
| C=C1CCC2(C(C)C)CC12 (stereo not drawn) [Sabinene] | lost its ability to bind | 15.6 | 18.2 | – |
| CC1=CC[C@H]2[C@H]3[C@@H]1[C@]2(C)CC[C@H]3C(C)C [α-copaene] | weakly bound | 11.4 | 13.3 | – |
| c1ccc(Nc2cccc3ccccc23)cc1 [Ligand 1-NPN, N-phentl-1-naphthylamine, reference compound] | – | – | – | Kd (XaffOBP9 mutant L114A; read-out: Kd with 1-NPN, mutant L114A): 14.8 µM; Kd (XaffOBP9 mutant L71A): 5.97 µM; Kd (XaffOBP9 mutant Y106A; read-out: Kd with 1-NPN, mutant Y106A): 8.7 µM; Kd (XaffOBP9; read-out: dissociation constant K 1-NPN, titration of 2 μM protein with 1-NPN, Scatchard plot): 5.91 µM |
| C=C1CCC2CC1C2(C)C (stereo not drawn) [(-)-β-pinene] | – | 13.7 | 16 | – |
| Cc1cccc(C(C)C)c1 [m-Cymene] | weakly bound | 14.8 | 17.3 | – |
| C=CC(=C)CCC=C(C)C [Myrcene] | lost its ability to bind | 9.8 | 11.4 | – |
